Experimental data: PMC8954350, “Non-Canonical Cannabinoid Receptors with Distinct Binding and Signaling Properties in Prostate and Other Cancer Cell Types Mediate Cell Death” (International Journal of Molecular Sciences, 2022)
Values joined by “and” are separate entries in the source; they are usually repeats but may differ in a detail not shown here. Identical values can stand only once. “Also recorded” adds a separate entry of the source. Like-named read-outs stand apart in the source and are kept apart here. Marks after values point to notes of the source that are not given here.

Columns and labels:
[1] = system: CBRs expressed in DU-145 membranes; type: binding, human
Description: (§1) The assay was conducted as previously detailed. […] All binding reactions were conducted in triplicate, in a final volume of 1 mL, and, following mixing, were incubated for 20 min in a 37 °C water bath to achieve equilibrium. After incubation, reactions were terminated by rapid vacuum filtration through Whatman GF/B glass fiber filters (Brandel; Gaithersburg, MD, USA), followed by three washes of 4 mls of ice-cold filtration buffer (50 mM Tris, pH 7.4, and 0.05% bovine serum albumin). Samples were punched out from filter papers into scintillation vials, to which 4 mls of ScintiverseTM-BDR cocktail scintillation fluid (Fisher Scientific; Hampton, NH, USA) was added. Filters were incubated at room temperature for 24 h in scintillation fluid, vortexed, and radioactivity (measured as DPMs) was quantified via a liquid scintillation spectrophotometer (Tri Carb 2100 TR Liquid Scintillation Analyzer, Packard Instruments, Meriden, CT, USA).
These experiments were conducted to screen well-characterized cannabinoid ligands with high affinity for canonical CB1 and/or CB2Rs for binding to CBRs expressed in prostate cancer cells lines, as detailed in [33]. […] All binding reactions were conducted in triplicate, in a final volume of 1 mL, and, following mixing, were incubated for 20 min in a 37 °C water bath to achieve equilibrium. After incubation, reactions were terminated by rapid vacuum filtration and processed for radioactivity, as detailed in Section 4.5.1.

[2] = target: CBRs expressed in DU-145 membranes; type: binding, human; remark: listed apart in the source
Description: (§2) The assay was performed as previously detailed. […] All binding reactions were conducted in triplicate, in a final volume of 1 mL, and, following mixing, were incubated for 20 min in a 37 °C water bath to achieve equilibrium. After incubation, reactions were terminated by rapid vacuum filtration and processed for radioactivity, as detailed in Section 4.5.1.
(§3) Curve-fitting and all statistical analyses were performed using GraphPad Prism® v8.0g (GraphPad Software, Inc.; San Diego, CA, USA). […] For CBR screening studies, a one-sample t-test was performed to determine differences from 100% (e.g., to quantify compounds producing displacement), followed by a one-way ANOVA and Tukey’s post hoc tests to compare displacement produced by all drugs. […] To compare specific CBR affinity (Ki) between ligands, non-linear regression analysis was employed to determine experimental IC50 values from competition receptor binding assays, which were then converted to Ki values using the Cheng–Prusoff equation [35]. Ki values were converted to pKi values so that parametric tests could be used and statistically compared by employing a one-way ANOVA followed by Tukey’s post hoc test. For statistical analyses of [^35S]GTPγS, adenylyl cyclase, and chronic experiments, a one-sample t-test was performed to detect differences from 100% (e.g., basal levels), followed by comparison of all means by a one-way ANOVA and Tukey’s post hoc test. For LDH release, ATP-dependent cell viability and JC-1 staining assays, drug effects were first analyzed by a one-sample t-test to determine differences from 0 or 100% (vehicle), followed by a one-way ANOVA and Dunnett’s post hoc test to compare all means. Significance for all statistical tests was defined at a minimal level of p < 0.05.

[3] = target: CBRs expressed in PC-3 membranes; type: binding, human
Description: as §2, §3

[4] = system: NPrEC; assay: LDH cytotoxicity, NPrEC cells; type: cell-based; details: NPrEC immortalized non-cancerous cell line
[5] = system: DU-145 cells; assay: ATP-dependent cell viability, DU-145 cells; type: cell-based, human; details: 24 h
Description: Adenosine 5′-triphosphate (ATP) levels were quantified as a measure of DU-145 cell viability in response to cannabinoid treatement using an ATP-luciferase-based bioluminescence assay kit (CellTiter-Glo®, Sigma, MO, USA) and BioTek microplate reader (Winooski, VT, USA). DU-145 cells were seeded at a density of 8 × 10^3 cells/well in a 96-well plate and incubated for 24 h at 37 °C with 5% CO2. The next day, cells were treated with either vehicle or experimental drugs (10 or 50 μM) and incubated for another 24 h at 37 °C with 5% CO2. ATP levels were assessed following incubation by interpolation from an ATP standard curve according to the manufacturer’s protocol, as described previously.

[6] = system: CBRs expressed in PC-12 cells; assay: [^3H]WIN-55,212-2 competitive binding screen, PC-12 membranes; design: species or system rat; details: 1 μM ligand, 1 nM radioligand
Description: as §1

[7] = system: CBRs expressed in PC-3 cells; assay: Adenylyl cyclase modulation in whole PC-3 cells; type: cell-based, human; details: 10 μM, with or without pertussis toxin
Description: (§4) These experiments were conducted to examine modulation of adenylyl cyclase activity by cannabinoid ligands in prostate cancer cell lines DU-145 and PC-3, as described earlier. CHO-hCB2, DU-145, or PC-3 cells were seeded into 24 well plates at a density of 8 × 10^6 cells per plate in growth media (DMEM for DU-145 and CHO-hCB2 cells or F12-K for PC-3 cells). Growth media contained FetalPlex (10%) and 1% pennicillin/streptomycin. Cells were cultured overnight in a humidified incubator maintained at 37 °C with 5% CO2. For some experiments, a subset of wells were treated overnight with pertussis toxin (2 μL/mL) to abolish Gi/Go protein-mediated signaling. Following overnight incubation, growth media was replaced with an incubation media containing either DMEM (for DU-145 and CHO-hCB2) or F12-K (for PC-3) with 0.9 g/l NaCl, 2.5 μCi/mL of [^3H]adenine, and 0.5 mM IBMX, and cells were kept in a humidified incubator maintained at 37 °C with 5% CO2 for 4 h. […] Finally, 10 mL of Scintiverse^TM BD Cocktail scintillation fluid (Fisher Scientific; Hampton, NH, USA) was added to eluates and radioactivity (quantified as DPMs) was quantified via a liquid scintillation spectrophotometer (Tri Carb 2100 TR Liquid Scintillation Analyzer, Packard Instruments, Meriden, CT, USA).

[8] = system: CBRs expressed in DU-145 cells; assay: Adenylyl cyclase modulation in whole DU-145 cells; type: cell-based, human; details: 10 μM, with or without pertussis toxin
Description: as §4

[9] = system: DU-145 cells; assay: Mitochondrial membrane potential (JC-1 staining), DU-145 cells; type: cell-based, human; details: 24 h; for mitochondrial membrane potential (MMP) depolarization: JC-1

Row | Structure (SMILES) | displacement of [^3H]WIN-55,212-2 [1] | Ki [2] | pKi (−log Ki) [2] | Ki [3] | pKi (−log Ki) [3] | LDH release [4] | reduction in ATP-dependent cell viability (ATP levels) ([5]; 50 μM) | concentration-dependent effect on ATP-dependent viability ([5]; 10–50 μM) | displacement of [^3H]WIN-55,212-2 (Figure 1B) [6] | displacement of [^3H]WIN-55,212-2 ([1]; 1 μM ligand, 1 nM radioligand, DU-145 membranes) | change in forskolin-stimulated intracellular cAMP levels [7] | change in forskolin-stimulated intracellular cAMP levels [8] | mitochondrial membrane potential (MMP) depolarization ([9]; 10 μM) | mitochondrial membrane potential (MMP) depolarization ([9]; 50 μM) | MMP on co-incubation with GW-405833 (10 μM) ([9]; 10 μM ligand co-incubated)
1 | COc1ccc2c(c1)c(CCN1CCOCC1)c(C)n2C(=O)c1cccc(Cl)c1Cl [GW-405833] | greater than 50% | ~290 nM and 290 nM | 6.5 ± 0.12 ^b | 296 nM | 6.47 ± 0.17 ^b | 46.4 ± 6.4% | 68.8 ± 4.95% | only produced ATP-dependent reductions in cell viability at the highest 50 μM concentration | – | – | – | – | – | – | –
2 | Cc1c(C(=O)c2cccc3ccccc23)c2cccc3c2n1[C@H](CN1CCOCC1)CO3 [WIN-55,212-2] | – | – | – | – | – | – | – | – | significantly displaced | significantly displaced; also recorded: complete displacement | neither WIN-55-212-2 nor rimonabant significantly altered intracellular cAMP levels | neither WIN-55-212-2 nor rimonabant significantly altered intracellular cAMP levels | produced effects only at 50 μM | produced effects only at 50 μM | –
3 | Cc1c(C(=O)NN2CCCCC2)nn(-c2ccc(Cl)cc2Cl)c1-c1ccc(Cl)cc1 [rimonabant] | greater than 50% | 102 nM | 7.04 ± 0.15 ^a | 54.1 nM | – | – | – | – | – | – | neither WIN-55-212-2 nor rimonabant significantly altered intracellular cAMP levels | neither WIN-55-212-2 nor rimonabant significantly altered intracellular cAMP levels | reduced MMP | – | MMP was not significantly reduced from vehicle-treated levels
